Measured values taken from patent publication US4229466A, “Sesquiterpene derivatives having anti-complementary activity” (Otsuka Pharmaceutical Co., Ltd., priority 1977, dated 1980).
Values joined by “and” are separate entries in the source; they are usually repeats but may differ in a detail not shown here. Equal entries are not always repeated.

Assays:
[1] = tested on: complement serum (guinea pig complement); experiment: Anti-complement activity: 50% inhibition of hemolysis of sensitized erythrocytes; format: cell-based; settings: 37° C., 60 minutes, guinea pig complement diluted 150 times; for IC50: Cavia porcellus, Erythrocyte, 1 h, OD413, read-out: Anti-Complement Activity Value (50% hemolysis inhibitory activity value)
Experimental: The anti-complement activity was measured and confirmed by the testing method described in Meneki Kagaku (Immuno-Chemistry), Yuichi Yamamura et al., Ed. pages 830-834, Asakura Shoten, Tokyo, Japan (1973). Specifically,a test tube was charged with 0.5 ml of an aqueous dispersion of each of the test compounds, 0.5 ml of sensitized erythrocytes (EA) containing 1×10^8 cells/ml, 1 ml of a 5-fold diluted solution of a Veronal buffer solution containing gelatin, Ca^++ and Mg^++ (GVB^++), and 0.5 ml of complement serum (guinea pig complement) diluted to 150 times with the GVB^++. The mixture was maintained hot at 37° C. for 60 minutes. Then, 5 ml of an ice-cold physiological saline solution was added thereto, and the mixture was centrifuged. […] The 50% hemolysis inhibitory activity value (γ/ml) measured by the above method is shown in Table 2 below for each test compound.

[2] = tested on: Nephrotoxin-Type Nephritis; experiment: Therapeutic effect on nephrotoxin-type nephritis (proteinuria); format: in vivo, male Wistar rats; settings: for inhibition of the primary reaction of nephrotoxin-type nephritis: same test as Table 3; for amount of proteinurea, Average: average of 3 replications; for amount of proteinurea, Average / amount of proteinurea: 5 mg per rat i.p. once daily, 7 days; for amount of proteinurea: individual replication
Text: Rat nephrotoxin ("NT" for brevity) was obtained as described below. Rat kidney cortex was homogenized with an equal quantity of physiological saline. The homogenized mixture was mixed with Freund's complete adjuvant (a product of Difco Company) in a volume ratio of 1:1. Two milliliters of the resulting mixture was intramuscularly injected into a rabbit (body weight 3,100 g) to immunize the rabbit. A month and a half later, blood was taken from the heart of the rabbit and serum was obtained. The resulting serum was inactivated at 56° C. for 30 minutes, then salted out with a 40% saturated aqueous solution of ammonium sulfate, and fractionated. The γ-globulin (IgG) fraction was collected to obtain NT.
The evaluation was carried out using male Wistar rats with a body weight of 150 to 160 g with three replications for each test compound. The test compound was intraperitoneally administered once every 24 hours for seven days. One hour after the administration of the test compound on the third day, the NT was applied. The NT was intravenously injected in an amount of 1 ml at a tail vein of each rat. Chlorophyllin (CP) was used as a comparison compound, and physiological saline solution was used as a control.
The proteinuria level (total amount excreted into the urine over a 24 hour period) was measured using turbidometry employing bovine serum albumin as a control by means of sulfosalicylic acid.

[3] = tested on: Heymann-type Nephritis; experiment: Therapeutic effects on Heymann-type nephritis (proteinuria); format: in vivo, male Wistar rats; settings: for activity of curing Heymann-type nephritis: test of Table 4, result in words; for amount of proteinurea, Average: average of 3 replications; for amount of proteinurea: individual replication
Experimental: Male Wistar rats with a body weight of 180 to 200 g were used in the test. Rat kidney cortex was extracted, and homogenized with an equal quantity by volume of a physiological saline solution. The homogenate was centrifuged at 1500 G for 1 hour. The supernatant liquid was purified in accordance with the method of T. S. […] The resulting mixture was injected intraperitoneally into isologous rats in an amount of 0.5 ml per rat. […] (This period was about 6 to 8 weeks.) […] CP was used as a comparison compound, and physiological saline solution was used as a control. Three replications were conducted for each test compound.

[4] = Acute toxicity on intravenous administration to mice; settings: mouse, in vivo
[5] = Before Administration, group of 5 mg per rat i.p.
[6] = Day 1, 5 mg per rat i.p. once a day, 7 days
[7] = Day 4, 5 mg per rat i.p. once a day, 7 days
[8] = Day 7, 5 mg per rat i.p. once a day, 7 days
[9] = Day 14, 5 mg per rat i.p. once a day, 7 days
[10] = Day 21, 5 mg per rat i.p. once a day, 7 days

COc1cc(CO)c(CO)c2c1CC1(O2)C(C)CCC2C(C)(C)C(O)C(O)CC21C (centres unmarked) [(12), 6,7-Dihydroxy-2,5,5,8a-tetramethyl-1,2,3,4,4a,5,6,7,8,8a-decahydronaphthalene-1-spiro-2'-(6',7'-dihydroxymethyl-4'-methoxy-2',3'-dihydrobenzofuran)]
IC50 [1]: 250 µg/mL
inhibition of the primary reaction of nephrotoxin-type nephritis ([2]; result in words): found to inhibit the primary reaction
activity of curing Heymann-type nephritis [3]: a substantial activity of curing Heymann-type nephritis

CC1CCC2C(C)(C)C(O)C(O)CC2(C)C12Cc1c(O)cc(C=CC(=O)O)c(C=CC(=O)O)c1O2 (centres unmarked) [(7), 6,7-Dihydroxy-2,5,5,8a-tetramethyl-1,2,3,4,4a,5,6,7,8,8a-decahydronaphthalene-1-spiro-2'-[6',7'-di-(2-carboxyvinyl)-4'-hydroxy-2',3'-dihydrobenzofuran]]
IC50 [1]: 80 µg/mL
LD50 [4]: 150 mg/kg
inhibition of the primary reaction of nephrotoxin-type nephritis ([2]; result in words): found to inhibit the primary reaction
activity of curing Heymann-type nephritis [3]: a substantial activity of curing Heymann-type nephritis

Chlorophyllin [reference compound]
Anti-Complement Activity Value (50% hemolysis inhibitory activity value) ([1]; OD413): 40 µg/mL
amount of proteinurea, Average ([2]; Day 1): 3.4 mg/day
amount of proteinurea ([2]; Day 1): 2.4 mg/day and 4.4 mg/day and 3.2 mg/day
amount of proteinurea, Average ([2]; Day 4): 2.1 mg/day
amount of proteinurea ([2]; Day 4): 1.5 mg/day and 2.6 mg/day and 2.1 mg/day
amount of proteinurea, Average ([2]; Day 7): 2.0 mg/day
amount of proteinurea ([2]; Day 7): 0.9 mg/day and 1.7 mg/day and 3.5 mg/day
amount of proteinurea, Average ([2]; Day 10): 8 mg/day
amount of proteinurea ([2]; Day 10): 9 mg/day and 8 mg/day and 6 mg/day
amount of proteinurea compared with healthy rat ([2]; from administration of NT to 10 days after, result in words): substantially the same as that of a healthy rat
amount of proteinurea, Average [3, 5]: 123 mg/day
amount of proteinurea [3, 5]: 123 mg/day and 117 mg/day and 129 mg/day
amount of proteinurea, Average [3, 6]: 115 mg/day
amount of proteinurea [3, 6]: 116 mg/day and 108 mg/day and 121 mg/day
amount of proteinurea, Average [3, 7]: 62 mg/day
amount of proteinurea [3, 7]: 72 mg/day and 63 mg/day and 52 mg/day
amount of proteinurea, Average [3, 8]: 28 mg/day
amount of proteinurea [3, 8]: 32 mg/day and 29 mg/day and 22 mg/day
amount of proteinurea, Average [3, 9]: 14 mg/day
amount of proteinurea [3, 9]: 16 mg/day and 12 mg/day and 15 mg/day
amount of proteinurea, Average [3, 10]: 10 mg/day
amount of proteinurea [3, 10]: 10 mg/day and 8 mg/day and 13 mg/day

CC1CCC2C(C)(C)C(O)C(O)CC2(C)C12Cc1c(O)cc(O)c(O)c1O2 (centres unmarked) [(2), 6,7-Dihydroxy-2,5,5,8a-tetramethyl-1,2,3,4,4a,5,6,7,8,8a-decahydronaphthalene-1-spiro-2'-(4',6',7'-trihydroxy-2',3'-dihydrobenzofuran)]
IC50 [1]: 80 µg/mL
LD50 [4]: 150 mg/kg

CC1CCC2C(C)(C)C(O)C(O)CC2(C)C12Cc1c(O)cc(C=C(C#N)C#N)c(C=C(C#N)C#N)c1O2 (centres unmarked) [(3), 6,7-Dihydroxy-2,5,5,8a-tetramethyl-1,2,3,4,4a,5,6,7,8,8a-decahydronaphthalene-1-spiro-2'-[6',7'-di-(2,2-dicyanovinyl)-4'-hydroxy-2',3'-dihydrobenzofuran]]
IC50 [1]: 40 µg/mL
LD50 [4]: 200 mg/kg

CCOC(=O)C(C#N)=Cc1cc(O)c2c(c1C=C(C#N)C(=O)OCC)OC1(C2)C(C)CCC2C(C)(C)C(O)C(O)CC21C (centres unmarked) [(4), 6,7-Dihydroxy-2,5,5,8a-tetramethyl-1,2,3,4,4a,5,6,7,8,8a-decahydronaphthalene-1-spiro-2'-[6',7'-di-(2-cyano-2-ethoxycarbonylvinyl)-4'-hydroxy-2',3'-dihydrobenzofuran]]
IC50 [1]: 80 µg/mL
LD50 [4]: 200 mg/kg

CC1CCC2C(C)(C)C(O)C(O)CC2(C)C12Cc1c(O)cc(CO)c(C(=O)O)c1O2 (centres unmarked) [(8), 6,7-Dihydroxy-2,5,5,8a-tetramethyl-1,2,3,4,4a,5,6,7,8,8a-decahydronaphthalene-1-spiro-2'-(7'-carboxy-6'-hydroxymethyl-4'-hydroxy-2',3'-dihydrobenzofuran)]
IC50 [1]: 125 µg/mL
inhibition of the primary reaction of nephrotoxin-type nephritis ([2]; result in words): found to inhibit the primary reaction
activity of curing Heymann-type nephritis [3]: a substantial activity of curing Heymann-type nephritis

CC1CCC2C(C)(C)C3OC(C)(C)OC3CC2(C)C12Cc1c(O)cc3c(c1O2)C(=O)OC3 (centres unmarked) [Compound No. (62), 4-Hydroxy-8-oxo-2,3,6,8-tetrahydro-furo[3,4-g]benzofuran-2-spiro-1'-(6',7'-isopropylidenedioxy-2',5',5',8'a-tetramethyl-1',2',3',4',4'a,5',6',7',8',8'a-decahydronaphthalene)]
IC50 [1]: 450 µg/mL
inhibition of the primary reaction of nephrotoxin-type nephritis ([2]; result in words): found to inhibit the primary reaction
activity of curing Heymann-type nephritis [3]: a substantial activity of curing Heymann-type nephritis

CC(=O)OCc1cc(OC(C)=O)c2c(c1COC(C)=O)OC1(C2)C(C)CCC2C(C)(C)C(OC(C)=O)C(OC(C)=O)CC21C (centres unmarked) [Compound No. (25), 6,7-Diacetyloxy-2,5,5,8a-tetramethyl-1,2,3,4,4a,5,6,7,8,8a-decahydronaphthalene-1-spiro-2'-(6',7'-diacetyloxymethyl-4'-acetyloxy-2',3'-dihydrobenzofuran)]
IC50 [1]: 600 µg/mL
inhibition of the primary reaction of nephrotoxin-type nephritis ([2]; result in words): found to inhibit the primary reaction
activity of curing Heymann-type nephritis [3]: a substantial activity of curing Heymann-type nephritis

CC1CCC2C(C)(C)C(O)C(O)CC2(C)C12Cc1c(O)cc(CO)c(CO)c1O2 (centres unmarked) [(11), 6,7-Dihydroxy-2,5,5,8a-tetramethyl-1,2,3,4,4a,5,6,7,8,8a-decahydronaphthalene-1-spiro-2'-(6',7'-dihydroxymethyl-4'-hydroxy-2',3'-dihydrobenzofuran)]
IC50 [1]: 500 µg/mL
inhibition of the primary reaction of nephrotoxin-type nephritis ([2]; result in words): found to inhibit the primary reaction
activity of curing Heymann-type nephritis [3]: a substantial activity of curing Heymann-type nephritis
